Measurements taken from the OPERA property sets (Mansouri et al. 2018).

Q: With CO[C@H](C(=O)[C@@H](O)[C@@H](C)O)C1Cc2cc3cc(O[C@H]4C[C@@H](O[C@H]5C[C@@H](O)[C@H](O)[C@@H](C)O5)[C@@H](O)[C@@H](C)O4)c(C)c(O)c3c(O)c2C(=O)[C@H]1O[C@H]1C[C@@H](O[C@H]2C[C@@H](O[C@H]3C[C@](C)(O)[C@H](O)[C@@H](C)O3)[C@H](O)[C@@H](C)O2)[C@H](O)[C@@H](C)O1 (stereo partly drawn) as the compound, how does the melting point read?
A: 182 °C

Q: For O=C(Nc1cccc(Cl)c1)OCC#CCCl, which log10 Koc (L/kg) is on record?
A: 3.06

Q: What about the log10 vapour pressure (mmHg) of the same compound?
A: -6.42

Q: And the melting point?
A: 75 °C

Q: What about the ready biodegradability of the same compound?
A: not readily biodegradable

Q: For CCCCCCCCCCCCCCCCOC(=O)CCCCCCCCCCCCC, which ready biodegradability is on record?
A: readily biodegradable

Q: Which boiling point does the source give for SCc1ccccc1 here?
A: 194 °C

Q: What about the log10 vapour pressure (mmHg) of the same compound?
A: -0.384

Q: What about the melting point of the same compound?
A: -30 °C

Q: Which boiling point does the source give for CC(C)S here?
A: 52.5 °C

Q: What about the log10 vapour pressure (mmHg) of the same compound?
A: 2.44

Q: What about the melting point of the same compound?
A: -130 °C

Q: For Cc1cc(C)c(C)c(C)n1, which boiling point is on record?
A: 203 °C

Q: For C[Si](O)(c1ccccc1)c1ccccc1, which melting point is on record?
A: 167 °C

Q: Which melting point does the source give for CCCCCCCCCC(N)=O here?
A: 108 °C

Q: With O=C(O)c1ccc(O)c([N+](=O)[O-])c1 as the compound, how does the melting point read?
A: 230 °C

Q: With CCCCOC(=O)c1ccc(N)cc1 as the compound, how does the melting point read?
A: 58 °C

Q: Which results are given for Brc1cc(Br)cc(Br)c1?
A: boiling point: 271 °C; log10 vapour pressure (mmHg): -2.82; melting point: 123 °C

Q: For CN(C)CC(O)c1ccc(O)c(O)c1 (stereo not drawn), which melting point is on record?
A: 149 °C

Q: Which results are given for C=C(CC)CC?
A: boiling point: 64.7 °C; log10 vapour pressure (mmHg): 2.24; melting point: -132 °C

Q: For CCCCCCCCCCCC[N+](C)(C)[O-], which melting point is on record?
A: 132 °C

Q: And the ready biodegradability?
A: readily biodegradable

Q: For CCOC(CN)OCC, which boiling point is on record?
A: 163 °C

Q: What about the melting point of the same compound?
A: -78 °C

Q: With CCCc1ccco1 as the compound, how does the boiling point read?
A: 115 °C

Q: For CCC(C)C(C)(CC)CC (stereo not drawn), which boiling point is on record?
A: 162 °C

Q: Which melting point does the source give for CCNC1=NC(=O)C(c2ccccc2)O1 (stereo not drawn) here?
A: 148 °C

Q: For O=C(CF)c1ccccc1, which melting point is on record?
A: 29 °C

Q: For CC(Br)C(C)(C)Br (stereo not drawn), which melting point is on record?
A: 7 °C

Q: For C=C=O, which boiling point is on record?
A: -49.8 °C

Q: What about the log10 vapour pressure (mmHg) of the same compound?
A: 4.02

Q: What about the melting point of the same compound?
A: -151 °C

Q: Which boiling point does the source give for CCC(C)O[N+](=O)[O-] (stereo not drawn) here?
A: 124 °C

Q: With Nc1ccc2[nH]ncc2c1 as the compound, how does the melting point read?
A: 176 °C

Q: With CCC(C)(C)CO as the compound, how does the boiling point read?
A: 136 °C

Q: Which melting point does the source give for O=C(O)c1c(F)c(F)cc(F)c1F here?
A: 151 °C

Q: With C=C1N(C)c2ccccc2C1(C)C as the compound, how does the boiling point read?
A: 248 °C

Q: For CN(C)c1ccccc1C(=O)O, which melting point is on record?
A: 72 °C

Q: For CC[Si](O)(CC)CC, which boiling point is on record?
A: 154 °C

Q: With CCCCCCCC(=O)OCC as the compound, how does the boiling point read?
A: 208 °C

Q: What about the log10 Koc (L/kg) of the same compound?
A: 3.02

Q: And the melting point?
A: -43.1 °C

Q: For CC1(C)CC(O)CC(C)(C)N1, which ready biodegradability is on record?
A: not readily biodegradable

Q: For CC(=O)NC(=O)c1ccccc1O, which melting point is on record?
A: 148 °C

Q: For CC(=O)Oc1cccc2cc3cccc(OC(C)=O)c3c(OC(C)=O)c12, which ready biodegradability is on record?
A: not readily biodegradable

Q: For Nc1c(Br)cc(Br)cc1Br, which boiling point is on record?
A: 300 °C

Q: And the melting point?
A: 122 °C

Q: For CC(C)NCC1CCc2cc(CO)c([N+](=O)[O-])cc2N1 (stereo not drawn), which melting point is on record?
A: 148 °C

Q: Which results are given for C=CC(C)Cl (stereo not drawn)?
A: boiling point: 64.5 °C; log10 vapour pressure (mmHg): 2.18

Q: For CC(C)C(=O)C(=O)O, which boiling point is on record?
A: 170 °C

Q: What about the melting point of the same compound?
A: 31.5 °C

Q: For FC(Cl)(Cl)C(Cl)Cl, which boiling point is on record?
A: 116 °C

Q: What about the melting point of the same compound?
A: -82.6 °C

Q: For Clc1cc(Cl)c2c(c1)oc1c(Cl)cc(Cl)cc12, which log10 vapour pressure (mmHg) is on record?
A: -7.57

Q: And the melting point?
A: 177 °C

Q: With COc1c(Cl)c(Cl)c(Cl)c(Cl)c1OC as the compound, how does the melting point read?
A: 90 °C

Q: With O=C(O)CCS as the compound, how does the log10 vapour pressure (mmHg) read?
A: -1.3

Q: What about the melting point of the same compound?
A: 18 °C

Q: Which boiling point does the source give for Cc1cccc(-c2ccccc2)c1 here?
A: 273 °C

Q: And the melting point?
A: 4.5 °C

Q: Which boiling point does the source give for CCCCBr here?
A: 101 °C

Q: And the log10 vapour pressure (mmHg)?
A: 1.62

Q: What about the melting point of the same compound?
A: -112 °C

Q: For CC(=O)O.CC(=O)O.N=C(NCCCCCCNC(=N)NC(=N)Nc1ccc(Cl)cc1)NC(=N)Nc1ccc(Cl)cc1, which melting point is on record?
A: 154 °C

Q: For S=C=S, which boiling point is on record?
A: 46 °C

Q: What about the log10 Henry constant (atm·m³/mol) of the same compound?
A: -1.84

Q: What about the log10 Koa of the same compound?
A: 2.28

Q: What about the log10 Koc (L/kg) of the same compound?
A: 2.34

Q: What about the log10 vapour pressure (mmHg) of the same compound?
A: 2.56

Q: What about the melting point of the same compound?
A: -112 °C

Q: With COc1cc2c(cc1O)C(Cc1ccc(OC)c(OC)c1)N(C)CC2 (stereo not drawn) as the compound, how does the melting point read?
A: 127 °C

Q: Which boiling point does the source give for CCCF here?
A: 2.5 °C

Q: What about the log10 vapour pressure (mmHg) of the same compound?
A: 3.3

Q: And the melting point?
A: -159 °C

Q: Which melting point does the source give for O=Cc1cccc2c1CCOC2=O here?
A: 140 °C

Q: Which melting point does the source give for Cc1cc(C)cc(OCC2CNC(=O)O2)c1 (stereo not drawn) here?
A: 122 °C

Q: Which melting point does the source give for CC(CC(C(N)=O)(c1ccccc1)c1ccccc1)N(C)C (stereo not drawn) here?
A: 137 °C

Q: Which results are given for CCNc1nc(NC(C)(C)C)nc(OC)n1?
A: log10 vapour pressure (mmHg): -5.7; melting point: 124 °C

Q: What does the source list for Nc1ccc(O)cc1?
A: boiling point: 284 °C; log10 vapour pressure (mmHg): -4.4; melting point: 188 °C; ready biodegradability: readily biodegradable

Q: Which melting point does the source give for CC(C)(C#N)/N=N/C(C)(C)C#N here?
A: 102 °C

Q: Which boiling point does the source give for CCC(C)c1ccccc1 (stereo not drawn) here?
A: 174 °C

Q: And the log10 vapour pressure (mmHg)?
A: 0.243

Q: What about the melting point of the same compound?
A: -82.7 °C

Q: For CS(=O)(=O)c1ccc(C(=O)C2C(=O)CCCC2=O)c(Cl)c1, which log10 vapour pressure (mmHg) is on record?
A: -7.43

Q: What about the melting point of the same compound?
A: 139 °C

Q: With N#CCCOc1cccc2ccccc12 as the compound, how does the melting point read?
A: 64 °C

Q: Which ready biodegradability does the source give for CCC(C)=NO[Si](C)(ON=C(C)CC)ON=C(C)CC here?
A: not readily biodegradable

Q: For O=C1CN(N=Cc2ccc(-c3ccc([N+](=O)[O-])cc3)o2)C(=O)N1, which melting point is on record?
A: 280 °C

Q: Which results are given for CCOc1ccccc1OCC?
A: boiling point: 219 °C; melting point: 44 °C

Q: Which boiling point does the source give for C[C@@H](O)C(=O)c1ccccc1 here?
A: 251 °C

Q: With COP(=S)(OC)SCc1nc(N)nc(N)n1 as the compound, how does the log10 vapour pressure (mmHg) read?
A: -6.01

Q: And the melting point?
A: 165 °C

Q: And the ready biodegradability?
A: not readily biodegradable

Q: With O=C(Cl)c1c(F)c(F)c(F)c(F)c1F as the compound, how does the boiling point read?
A: 158 °C

Q: With C1=NN(c2ccccc2)CC1 as the compound, how does the boiling point read?
A: 273 °C

Q: What about the melting point of the same compound?
A: 52 °C

Q: With CCN(Cc1ccncc1)C(=O)C(CO)c1ccccc1 (stereo not drawn) as the compound, how does the melting point read?
A: 96.5 °C

Q: Which boiling point does the source give for C/C=C(/C)c1ccccc1 here?
A: 195 °C

Q: For CCOP(=O)(OCC)OCC, which boiling point is on record?
A: 216 °C

Q: And the log10 Henry constant (atm·m³/mol)?
A: -7.44

Q: And the log10 vapour pressure (mmHg)?
A: -0.406

Q: What about the melting point of the same compound?
A: -56.4 °C

Q: And the ready biodegradability?
A: not readily biodegradable
